Structures are written as SMILES.

The subject of test [1] is bovine aortic endothelial cells (bAECs). Briefly: Lysophosphatidylcholine or homocysteine/Cu2+ challenge of E2-pretreated cells, cell survival. Type of test: cell-based. The method, then:
Prior to E2 pretreatment, cells were grown in phenol red-free DMEM supplemented with 10% dextran/charcoal-stripped FBS for at least 1 passage (3-4 days). Phenol red-free Dulbecco's modified medium was used to avoid potential estrogenic interference. Serum steroid deprivation was conducted according to the conditions described by Yeh et al. (Proc. Natl. Acad. Sci. USA 95:5527-5532, 1998). The E2 level in the stripped serum was assayed using an [^125I] 17β-estradiol radioimmunoassay kit (TKE21, Diagnostic Products Corporation, Los Angeles, Calif.). […] The cells grown in E2-free environments were plated onto Falcon 24-well Primariae™ plates at a density of 5×10^4 cells/well. […]
Cell survival after oxidative challenge was assessed with a 3-(4,5-dimethylthiazol-2-yl) 2,5 diphenyltetrazolium bromide (MTT) assay in which the mitochondrial dehydrogenase activity of viable cells reduces MTT to a blue formazan product (Carmichael et al. Cancer Res. 47:936-942, 1987). […] Following cell lysis, the absorbency was measured at 570 nm and used as an indicator of relative cell survival. The surviving fraction was calculated as compared to the cells without paraquat challenge.

In test [2] the test system is cardiomyocytes. As to conditions: cited from earlier work.

In the case of `C[C@]12CC[C@@H]3c4ccc(O)cc4CC[C@H]3[C@@H]1CC[C@@H]2O` [E2, 17β-estradiol], the “survival after homocysteine/Cu2+ challenge” value in test [1] (homocysteine/Cu2+ 1 mM/25 μM, 3 hours) was “gained survival benefit”. Also, the “survival after lysophosphatidylcholine challenge” value in test [1] (lysophosphatidylcholine 10 μg/ml, 60 min) is on record as “gained survival benefit”. The “effect on high K+-induced Ca++ loading or hypercontracture” value in test [2] is “prevent high K+-induced intracellular Ca++ loading or hypercontracture”.

The record behind these values is patent US20020164581A1 (priority 2001, published 2002).
